Results on two molecules are retold here after publication PMC10308239, “Light-driven Proton Pumps as a Potential Regulator for Carbon Fixation in Marine Diatoms” (Microbes and Environments, 2023).

In one data set the target is T1, PngR (Pseudo-nitzschia granii, UniProt A0A0A7RP02).
T1 construct: gene RHO; full length, E. coli codon-optimised, C-terminal His6 tag (pET21a NdeI-XhoI), expressed in E. coli BL21(DE3) with all-trans retinal, purified in DDM
The experiment in a line: HPLC of retinal oxime isomers from purified holoprotein; absorption spectrum. In kind it is binding. To be noted: covalent; chromophore; light- and dark-adapted samples; 50 mM Tris-HCl pH 7.0, 1 M NaCl, 0.05% DDM.

The target of a further data set is Asp91 (position 91, …). Nature of the data set: UV-vis. To be noted: room temperature (approximately 25°C), 1 M NaCl, Buffer A: 50 mM Tris-HCl, 0.05% (w/v) DDM, pH adjusted by addition of HCl, Dark/ground (unphotolysed) state with all-trans retinal, measured under room light, DDM-solubilised, folded (reversibility checked).

On to `CC1=C(/C=C/C(C)=C/C=C/C(C)=C/C=O)C(C)(C)CCC1` [all-trans retinal], for which the “HPLC of retinal oxime isomers from purified holoprotein; absorption spectrum” value on PngR was “In light- and dark-adapted samples, the isomeric state of retinal was predominantly all-trans”.

B1: PngR (Pseudo-nitzschia granii rhodopsin, xanthorhodopsin-like light-driven proton pump) (Pseudo-nitzschia granii) (protein)
chain: MVTANQFTIVYDVLSFSLATMMATTIFLWMRVPSVHEKYKSALIISGLVTFIAAYHYLRIFNSWTEAYEWTAEGELSATASPFNDAYRYMDWLLTVPLLLIEIILVMKLPADESRSKATTLGIASAAMIAIGYPGELAMSDDSLGTRWVYWIGAMLPFLYIVQTLLVGLNDATQSEADPAIRDLIKGVQWWTVISWCTYPVVYVFPMMGITGTNAIVGIQLGYSVSDIISKCGVGLMIYQITIAKSYALKKGNEETPLYG
As for B1, the pKa entry with Asp91 (position 91, …) is given as “approximately 5.0”.
